The results in this text go back to US20030129189A1, “Tumor necrosis factor-gamma” (priority 1994, published 2003).

The test system of experiment [1] is c-Jun kinase (JNK) in U-937 cells. Nature of the experiment: JNK kinase activation assay. The class given is cell-based. The note with it: 0.1 to 3.0 μg/ml. How it is done: The cellular kinase designated c-Jun kinase (JNK) is an early event in cellular activation. The activation of JNK by TNF-gamma was analyzed as an additional method of determining cellular reaction to treatment with TNF-gamma. The JNK kinase activation assay is well-known by one of skill in the art and has been described by Derijard and colleagues (Cell 76:1025-1029 (1994)). After treatment of U-937 cells with 0.1 to 3.0 μg/ml of TNF-gamma for 12 hours, the cells were harvested and assayed for JNK kinase activity. By 6 and 12 hours, JNK activity had increased 2- and 3.6-fold, respectively.

The next experiment concerns Raji. Nature of the experiment: TNF-gamma activity on Raji cells. The class given is cell-based. Also noted: key: The numbers of “+” indicate the relative level of activities.; ++: The numbers of “+” indicate the relative level of activities.; +++: The numbers of “+” indicate the relative level of activities.; “−” indicates no detected activity at the concentration range tested. The note with it: human Burkitt's lymphoma. How it is done:
The adherent target cells were prepared from confluent cultures by trypsinization in PBS, and non-adherent target cells were harvested from stationary cultures and washed once with medium. Target cells were suspended at 3×10^5 cells/ml in medium containing 10% FCS. 0.1 ml aliquots were dispensed into 96-well flat-bottomed microtiter plates containing 0.1 ml serially diluted test samples of cells (WEHI 164 and L929). Incubation was continued for 70 hours. TNF-alpha, TNF-beta and bacterially-produced TNF-gamma were added at a 0.5 μg/ml concentration. The cytotoxicity and proliferation activity was quantified using an MTS assay performed by the addition of 20 μl of MTS and phenazine methosulfate (PMS) solution to each well. After a three hour incubation, the OD at 492 nm was measured by an ELISA plate reader. The OD492 is proportional to the number of viable cells in the wells. The percent of cytotoxicity was calculated as follows: […]. The photographs were taken after 72 hours.

Experiment [2] concerns MC-38 murine colon cancer. Nature of the experiment: In vivo tumorigenicity assay, syngeneic MC-38 colon cancer. The note with it: local production by transfected MCA 38 cells, 1×10^6 cells/mouse. Set-up: species or system C57BL6/6 mice. How it is done:
[The full-length TNF-gamma and extracellular domain of DR3 was cloned into pcDNA3 expression vector and transfected to MCA 38 cells, respectively. After selection and cloning, three clones from each constructs were picked for tumorigenicity study. MCA 38 cells (1×10^6 cells/mouse) expressing TNF-gamma or DR3 extracellular domain were injected into C57BL6/6 mice. The tumor size was assessed by measuring perpendicular diameters with a caliper and calculated by multiplying the measurements of diameters in two dimensions. Data are represented as the mean +/−SD of 6 mice in each group.] It is clear that most immune cells and cancer cells can express more than one TNF receptor (even more than one death receptor) and ligand superfamily member. […] Moreover, the expression of these ligands and receptors may differ at the level of individual cell types within tissues and the expression level on the same cell type may also differ.
The full length TNF-gamma and extracellular domain of DR3 was cloned into pcDNA3 expression vector (Invitrogen, Carlsbad, Calif.) and transfected to MCA 38 cells, respectively. […] Mice then were randomized and tumors were measured twice weekly. The tumor size was assessed by measuring perpendicular diameters with a caliper and calculated by multiplying the measurements of diameters in two dimensions. […]

Another experiment deals with I-kappaBa in U-937 cells. Nature of the experiment: I-kappaBa degradation (Western blot). The class given is cell-based. The note with it: 0.1-1.0 μg/ml, 12 hours. How it is done: These experiments were elaborated by determining a degradation profile for I-kappaBa in U-937 cells in response to treatment with TNF-gamma. A time course of I-kappaBa degradation was determined by Western blot analysis, a technique that is well-known by one of ordinary skill in the art and has been described by Singh and Aggarwal (J. Biol. Chem. 270:24995-25000 (1995)).
Background: A western blot detects proteins with antibodies after separation by electrophoresis.

Experiment [3] concerns Primary human aterial endothelial. Nature of the experiment: TNF-gamma activity on primary human arterial endothelial cells. The class given is cell-based. Set-up: key: The numbers of “+” indicate the relative level of activities.; ++: The numbers of “+” indicate the relative level of activities.; +++: The numbers of “+” indicate the relative level of activities.; “−” indicates no detected activity at the concentration range tested.

The test system of experiment [4] is adult bovine aortic endothelial cells. Nature of the experiment: Endothelial cell apoptosis. The class given is cell-based.

On to “TNF-gamma: new member of the tumor necrosis factor family; the term refers to TNF-gamma-alpha and/or TNF-gamma-beta”, for which the “increase in JNK activity” value in experiment [1] (by 6 hours) amounted to 2 fold. Besides, the “increase in JNK activity” value in experiment [1] (by 12 hours) worked out at 3.6 fold. In addition, in the experiment on Raji, the Adhesion result was “−−”, the Differentiation result is “−−” and the Proliferation entry is “−”. Moreover, the tumor growth result in experiment [2] is “caused complete tumor suppression”. Besides, in the experiment with I-kappaBa in U-937 cells, the I-kappaBa degradation result is given as “completely degraded”. Besides, in experiment [3], the Differentiation result is reported as “−?” and the Proliferation entry is “++”. Moreover, the apoptosis result in experiment [4] is “induces apoptosis”.
